Reference: the supplement of paper PMC13380429

Columns and labels:
Conditions in all cases: 72 h
Vero E6 [1] = assay: drug sensitivity score (DSS) for viability; higher = more toxic; extreme values may be limits of the assay
Calu-3 [2] = assay: as above
HepG2 [3] = assay: as above
U2OS [4] = assay: as above
Caco-2 [5] = assay: as above
Vero E6 [6] = assay: cell viability relative to DMSO; higher = less toxic
Calu-3 [7] = assay: as above
HepG2 [8] = assay: as above
U2OS [9] = assay: as above
Caco-2 [10] = assay: as above
Vero E6 [11] = assay: relative viability EC50 (midpoint between 100% and the lowest measured viability); higher = less toxic
Calu-3 [12] = assay: as above
HepG2 [13] = assay: as above
U2OS [14] = assay: as above
Caco-2 [15] = assay: as above

Structure (SMILES)	drug sensitivity score (Vero E6 [1])	drug sensitivity score (Calu-3 [2])	drug sensitivity score (HepG2 [3])	drug sensitivity score (U2OS [4])	drug sensitivity score (Caco-2 [5])	cell viability (Vero E6 [6]; 1 nM)	cell viability (Vero E6 [6]; 10 nM)	cell viability (Vero E6 [6]; 100 nM)	cell viability (Vero E6 [6]; 1000 nM)	cell viability (Vero E6 [6]; 10000 nM)	cell viability (Calu-3 [7]; 1 nM)	cell viability (Calu-3 [7]; 10 nM)	cell viability (Calu-3 [7]; 100 nM)	cell viability (Calu-3 [7]; 1000 nM)	cell viability (Calu-3 [7]; 10000 nM)	cell viability (HepG2 [8]; 1 nM)	cell viability (HepG2 [8]; 10 nM)	cell viability (HepG2 [8]; 100 nM)	cell viability (HepG2 [8]; 1000 nM)	cell viability (HepG2 [8]; 10000 nM)	cell viability (U2OS [9]; 1 nM)	cell viability (U2OS [9]; 10 nM)	cell viability (U2OS [9]; 100 nM)	cell viability (U2OS [9]; 1000 nM)	cell viability (U2OS [9]; 10000 nM)	cell viability (Caco-2 [10]; 1 nM)	cell viability (Caco-2 [10]; 10 nM)	cell viability (Caco-2 [10]; 100 nM)	cell viability (Caco-2 [10]; 1000 nM)	cell viability (Caco-2 [10]; 10000 nM)	relative viability EC50 (Vero E6 [11])	relative viability EC50 (Calu-3 [12])	relative viability EC50 (HepG2 [13])	relative viability EC50 (U2OS [14])	relative viability EC50 (Caco-2 [15])
C=C(C)[C@@H]1CC[C@]2(CO)CC[C@]3(C)[C@H](CC[C@@H]4[C@@]5(C)CC[C@H](O)C(C)(C)[C@@H]5CC[C@]43C)[C@@H]12 [NSC-4644]	0	0	2.9	0	10.8	84.1%	95.4%	96.3%	92%	106%	103%	103%	102%	106%	90.3%	112%	99.1%	96.1%	81.2%	89.8%	96.6%	95.6%	103%	92%	98.4%	101%	73.1%	75.8%	74.1%	91.1%	> 10 µM	> 10 µM	> 10 µM	> 10 µM	
CCCCC/C=C\C/C=C\C/C=C\CCCCC(=O)O [gamma-linolenic-acid]	0		0	0	0	98.2%	103%	97.2%	103%	100%						107%	115%	94.8%	99.2%	107%	106%	106%	98.9%	103%	103%	97.9%	103%	102%	116%	94%	> 10 µM		> 10 µM	> 10 µM	> 10 µM
Cc1c(Cl)cccc1S(=O)(=O)Nc1nc(NCCc2ccccc2)nc2c1CN(Cc1ccccc1)CC2 [CaMKII-IN-1]	0		0	0	0.3	95.3%	104%	98.2%	97.7%	108%						88.3%	97.1%	90.6%	101%	93.6%	102%	102%	105%	98.9%	88.7%	98.9%	96.1%	93%	102%	83.1%	> 10 µM		> 10 µM	> 10 µM	> 10 µM
Cn1c(=O)c2[nH]cnc2n(C)c1=O [aminophylline]	0	0		0		99.5%	100%	94.9%	93.1%	112%	99.2%	114%	100%	108%	114%						99.1%	98.9%	94.9%	101%	103%						> 10 µM	> 10 µM		> 10 µM	
CC(C)NCC(O)c1ccccc1Cl (stereo not given) [clorprenaline]	0		0	0	0	99.8%	95%	99.8%	99.6%	106%						101%	102%	93.4%	97.3%	113%	94%	103%	95.6%	102%	103%	99.7%	104%	94.7%	93.7%	102%	> 10 µM		> 10 µM	> 10 µM	> 10 µM
CC(C)C(N)=O [isobutyramide]	0		0	0	0	105%	106%	96.2%	98%	105%						115%	99.1%	90.3%	101%	96.8%	102%	97.6%	101%	98.8%	104%	95.1%	95.6%	97.9%	90.2%	98.2%	> 10 µM		> 10 µM	> 10 µM	> 10 µM
CN1CCN(CC/C=C2/c3ccccc3Sc3ccc(S(=O)(=O)N(C)C)cc32)CC1 [thiothixene]	0.2	0.6	2.6	0.3	1.6	99.5%	108%	97.2%	91.8%	88.1%	96.4%	102%	119%	104%	77.6%	94.2%	102%	104%	87.6%	73.3%	95.7%	97%	95.6%	99.4%	84.5%	107%	104%	103%	97.5%	71.4%	> 10 µM	> 10 µM		> 10 µM	
